This passage reports IC50 results from patent US9233968B1, “Kinase inhibitors” (Allergan, Inc., priority 2014, dated 2016).

Molecules are shown by their SMILES. pIC50: −log10 of the molar value.

As usually defined, the pIC50 is the negative decadic logarithm of the IC50, by convention in mol/L.

Assay [1] addresses VEGFR2 (cytoplasmic domain KDR protein) (Homo sapiens (Human), UniProt P35968). Put plainly: VEGFR2 Kinase Assay (biochemical KDR kinase assay). The conditions noted are these: 2.7 μM ATP, poly-Glu-Tyr substrate; read-out: Enzyme VEGFR2 IC50. The method, then: Biochemical KDR kinase assays were performed in 96 well microtiter plates that were coated overnight with 75 μg/well of poly-Glu-Tyr (4:1) in 10 mM Phosphate Buffered Saline (PBS), pH 7.4. The coated plates were washed with 2 mls per well PBS+0.05% Tween-20 (PBS-T), blocked by incubation with PBS containing 1% BSA, then washed with 2 mls per well PBS-T prior to starting the reaction. Reactions were carried out in 100 μL reaction volumes containing 2.7 μM ATP in kinase buffer (50 mM Hepes buffer pH 7.4, 20 mM MgCl2, 0.1 mM MnCl2 and 0.2 mM Na3VO4). […] Reactions were initiated by the addition 20 μl per well of kinase buffer containing 200-300 ng purified cytoplasmic domain KDR protein (BPS Bioscience, San Diego, Calif.). Following a 15 minute incubation at 30° C., the reactions were washed 2 mls per well PBS-T. 100 μl of a monoclonal anti-phosphotyrosine antibody-peroxidase conjugate diluted 1:10,000 in PBS-T was added to the wells for 30 minutes. Following a 2 mls per well wash with PBS-Tween-20, 100 μl of O-Phenylenediamine Dihydrochloride in phosphate-citrate buffer, containing urea hydrogen peroxide, was added to the wells for 7-10 minutes as a colorimetric substrate for the peroxidase. The reaction was terminated by the addition of 100 μl of 2.5N H2SO4 to each well and read using a microplate ELISA reader set at 492 nm. IC50 values for compound inhibition were calculated directly from graphs of optical density (arbitrary units) versus compound concentration following subtraction of blank values.

Assay [2] has as its target PDGFRβ (cytoplasmic domain PDGFR-b protein) (Homo sapiens (Human), UniProt P09619). Put plainly: PDGFRβ Kinase Assay. The format is biochemical. The conditions noted are these: 36 μM ATP, poly-Glu-Tyr substrate; read-out: Enzyme PDGFRβ IC50. The method, then: Biochemical PDGFRβ kinase assays were performed in 96 well microtiter plates that were coated overnight with 75 μg of poly-Glu-Tyr (4:1) in 10 mM Phosphate Buffered Saline (PBS), pH 7.4. The coated plates were washed with 2 mls per well PBS+0.05% Tween-20 (PBS-T), blocked by incubation with PBS containing 1% BSA, then washed with 2 mls per well PBS-T prior to starting the reaction. […] Reactions were initiated by the addition 20 μl per well of kinase buffer containing 200-300 ng purified cytoplasmic domain PDGFR-b protein (Millipore). Following a 60 minute incubation at 30° C., the reactions were washed 2 mls per well PBS-T. 100 μl of a monoclonal anti-phosphotyrosine antibody-peroxidase conjugate diluted 1:10,000 in PBS-T was added to the wells for 30 minutes. Following a 2 mls per well wash with PBS-Tween-20, 100 μl of O-Phenylenediamine Dihydrochloride in phosphate-citrate buffer, containing urea hydrogen peroxide, was added to the wells for 7-10 minutes as a colorimetric substrate for the peroxidase. […] IC50 values for compound inhibition were calculated directly from graphs of optical density (arbitrary units) versus compound concentration following subtraction of blank values.

For another assay, the target named is VEGFR2 (Homo sapiens (Human), UniProt P35968). Put plainly: VEGFR2 Cellular Assay (FLIPR, VEGF induced intracellular calcium in HUVEC). The conditions noted are these: VEGF165 stimulation 10 ng/mL, read-out: Receptor VEGFR2 IC50. The format is cell-based. How it is done:
VEGFR2 Cellular Assay Automated FLIPR (Fluorometric Imaging Plate Reader) technology was used to screen for inhibitors of VEGF induced increases in intracellular calcium levels in fluorescent dye loaded endothelial cells. HUVEC (human umbilical vein endothelial cells) (Clonetics) were seeded in 384-well fibronectin coated black-walled plates overnight at 37° C./5% CO2. Cells were loaded with calcium indicator Fluo-4 for 45 minutes at 37° C. Cells were washed 2 times (Elx405, Biotek Instruments) to remove extracellular dye. For screening, cells were pre-incubated with test agents for 30 minutes, at a single concentration (10 μM) or at concentrations ranging from 0.0001 to 10.0 μM followed by VEGF165 stimulation (10 ng/mL). […] Data were generated by determining max-min fluorescence levels for unstimulated, stimulated, and drug treated samples. IC50 values for test compounds were calculated from % inhibition of VEGF stimulated responses in the absence of inhibitor.

PDGFRβ (cytoplasmic domain PDGFR-b protein), sequence (P09619 554-1106): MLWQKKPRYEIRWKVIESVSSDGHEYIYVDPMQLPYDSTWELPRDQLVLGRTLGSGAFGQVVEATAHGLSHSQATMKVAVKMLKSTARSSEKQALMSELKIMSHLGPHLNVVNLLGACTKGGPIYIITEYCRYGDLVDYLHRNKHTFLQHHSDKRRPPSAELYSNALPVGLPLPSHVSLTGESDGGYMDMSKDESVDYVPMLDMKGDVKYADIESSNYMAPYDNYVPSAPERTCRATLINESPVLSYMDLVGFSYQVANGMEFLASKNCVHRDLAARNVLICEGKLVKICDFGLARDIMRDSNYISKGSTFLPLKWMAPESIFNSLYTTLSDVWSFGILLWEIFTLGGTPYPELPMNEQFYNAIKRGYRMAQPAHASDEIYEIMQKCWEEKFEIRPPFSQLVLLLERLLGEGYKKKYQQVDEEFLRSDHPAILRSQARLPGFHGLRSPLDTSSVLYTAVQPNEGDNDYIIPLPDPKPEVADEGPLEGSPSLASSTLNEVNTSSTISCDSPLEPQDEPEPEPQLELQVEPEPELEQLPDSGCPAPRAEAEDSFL
VEGFR2, sequence (P35968 20-1356): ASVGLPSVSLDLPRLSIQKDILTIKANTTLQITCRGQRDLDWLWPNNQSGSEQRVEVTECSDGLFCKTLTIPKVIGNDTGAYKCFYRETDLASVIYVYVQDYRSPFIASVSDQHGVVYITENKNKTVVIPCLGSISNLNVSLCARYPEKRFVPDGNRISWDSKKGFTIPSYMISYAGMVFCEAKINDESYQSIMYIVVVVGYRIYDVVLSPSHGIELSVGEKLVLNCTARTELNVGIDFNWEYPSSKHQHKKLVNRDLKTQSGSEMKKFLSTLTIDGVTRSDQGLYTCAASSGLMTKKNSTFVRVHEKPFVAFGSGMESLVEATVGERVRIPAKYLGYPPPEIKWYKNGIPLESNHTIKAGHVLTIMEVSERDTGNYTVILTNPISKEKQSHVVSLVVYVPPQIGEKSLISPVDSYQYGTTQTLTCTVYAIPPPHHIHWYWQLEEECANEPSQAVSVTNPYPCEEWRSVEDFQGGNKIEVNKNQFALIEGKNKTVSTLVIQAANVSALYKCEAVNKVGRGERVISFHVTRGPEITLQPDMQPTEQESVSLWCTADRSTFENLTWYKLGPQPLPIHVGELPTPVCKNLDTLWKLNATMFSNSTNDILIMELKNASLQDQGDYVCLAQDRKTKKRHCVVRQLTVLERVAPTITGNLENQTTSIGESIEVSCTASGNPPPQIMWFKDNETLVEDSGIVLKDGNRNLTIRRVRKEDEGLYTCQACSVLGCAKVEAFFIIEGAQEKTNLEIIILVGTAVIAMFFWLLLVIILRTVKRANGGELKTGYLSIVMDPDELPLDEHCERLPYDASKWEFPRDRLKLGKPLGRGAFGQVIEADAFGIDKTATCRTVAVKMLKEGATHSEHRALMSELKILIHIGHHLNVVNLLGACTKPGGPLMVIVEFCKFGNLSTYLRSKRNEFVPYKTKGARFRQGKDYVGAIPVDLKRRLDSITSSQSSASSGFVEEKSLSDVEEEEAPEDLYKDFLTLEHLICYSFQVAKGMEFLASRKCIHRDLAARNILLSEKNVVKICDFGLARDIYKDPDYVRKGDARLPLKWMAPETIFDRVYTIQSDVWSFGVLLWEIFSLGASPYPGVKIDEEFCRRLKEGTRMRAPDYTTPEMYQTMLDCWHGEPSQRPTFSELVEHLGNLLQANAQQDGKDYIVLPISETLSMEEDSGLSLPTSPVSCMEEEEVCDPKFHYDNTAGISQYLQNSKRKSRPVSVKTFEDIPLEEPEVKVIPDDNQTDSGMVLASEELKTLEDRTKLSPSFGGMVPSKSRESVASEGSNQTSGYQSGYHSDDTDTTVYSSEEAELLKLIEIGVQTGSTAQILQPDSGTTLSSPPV
VEGFR2 (cytoplasmic domain KDR protein), sequence (P35968 786-1356): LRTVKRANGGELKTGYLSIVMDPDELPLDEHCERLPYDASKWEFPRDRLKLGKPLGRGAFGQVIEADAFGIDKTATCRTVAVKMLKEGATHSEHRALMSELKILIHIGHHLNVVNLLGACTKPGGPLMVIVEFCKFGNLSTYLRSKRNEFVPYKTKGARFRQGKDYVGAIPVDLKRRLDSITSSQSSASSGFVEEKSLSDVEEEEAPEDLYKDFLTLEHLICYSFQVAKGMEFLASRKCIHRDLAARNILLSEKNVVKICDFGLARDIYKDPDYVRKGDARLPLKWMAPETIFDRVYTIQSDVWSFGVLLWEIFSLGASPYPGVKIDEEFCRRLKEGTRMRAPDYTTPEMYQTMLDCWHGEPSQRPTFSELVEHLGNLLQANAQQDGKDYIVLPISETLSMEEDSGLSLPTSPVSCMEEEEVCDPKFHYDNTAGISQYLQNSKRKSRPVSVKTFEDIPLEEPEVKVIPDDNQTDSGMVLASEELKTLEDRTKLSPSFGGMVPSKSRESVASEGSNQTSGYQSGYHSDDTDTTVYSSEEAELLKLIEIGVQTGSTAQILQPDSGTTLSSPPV

On to `O=C(Nc1ccc(C#Cc2ccc3nccn3n2)cc1)Nc1ccc(F)c(Cl)c1` [Example 5, 1-(3-chloro-4-fluorophenyl)-3-[4-(imidazo[1,2-b]pyridazin-6-ylethynyl)phenyl]urea], for which the pIC50 in assay [1] is 7.02.
Take `Cc1ccc(F)c(NC(=O)Nc2ccc(C#Cc3ccc4nccn4n3)cc2)c1` [Example 6, 1-(2-fluoro-5-methylphenyl)-3-[4-(imidazo[1,2-b]pyridazin-6-ylethynyl)phenyl]urea]: in assay [1], the negative-log IC50 (pIC50) is 7.00.
Take `O=C(Nc1ccc(C#Cc2ccc3nccn3n2)cc1)Nc1ccc(Cl)c(C(F)(F)F)c1` [Example 7, 1-[4-chloro-3-(trifluoromethyl)phenyl]-3-[4-(imidazo[1,2-b]pyridazin-6-ylethynyl)phenyl]urea]: the pIC50 was 7.37 in assay [2], 5.69 at VEGFR2 and 6.90 in assay [1].
For `O=C(Nc1ccccc1)Nc1ccc(C#Cc2ccc3nccn3n2)cc1` [Example 8, 1-[4-(imidazo[1,2-b]pyridazin-6-ylethynyl)phenyl]-3-phenylurea], the pIC50 in assay [2] was 6.73; at VEGFR2 it was 5.27; in assay [1], 6.57.
Take `O=C(Nc1ccc(C#Cc2ccc3nccn3n2)cc1)Nc1cc(C(F)(F)F)ccc1F` [Example 9, 1-[2-fluoro-5-(trifluoromethyl)phenyl]-3-[4-(imidazo[1,2-b]pyridazin-6-ylethynyl)phenyl]urea]: the pIC50 was 7.03 in assay [2], 5.07 at VEGFR2 and 6.35 in assay [1].
Regarding `Cc1ccc(NC(=O)Nc2ccc(C#Cc3ccc4nccn4n3)cc2)cc1` [Example 13, 1-[4-(imidazo[1,2-b]pyridazin-6-ylethynyl)phenyl]-3-(4-methylphenyl)urea], the pIC50 in assay [2] was 7.17.
Take `Cc1cccc(C(=O)Nc2cccc(C#Cc3ccc4nccn4n3)c2)c1` [Example 23, N-[3-(imidazo[1,2-b]pyridazin-6-ylethynyl)phenyl]-3-methylbenzamide]: the pIC50 in assay [2] was 5.82; at VEGFR2, 6.06; in assay [1] it was 6.53.
Take `Cc1ccc(F)c(NC(=O)Nc2cccc(C#Cc3ccc4nccn4n3)c2)c1` [Example 29, 1-(2-fluoro-5-methylphenyl)-3-[3-(imidazo[1,2-b]pyridazin-6-ylethynyl)phenyl]urea]: the results for the pIC50 in assay [2] and in assay [1] were < 5.00 and 5.33, respectively.
As to `Cc1ccc(F)c(NC(=O)Nc2ccccc2C#Cc2ccc3nccn3n2)c1` [Example 30, 1-(2-fluoro-5-methylphenyl)-3-[2-(imidazo[1,2-b]pyridazin-6-ylethynyl)phenyl]urea], the results for the pIC50 in assay [2] and in assay [1] were < 5.00 and 5.74, respectively.
On to `Cc1ccc(F)c(NC(=O)Nc2cccc(C#Cc3cccc4[nH]nc(N)c34)c2)c1` [Example 31, 1-{3-[(3-amino-1H-indazol-4-yl)ethynyl]phenyl}-3-(2-fluoro-5-methylphenyl)urea], for which the pIC50 at VEGFR2 is 7.80; in assay [1] it was 7.68.
With `Nc1n[nH]c2cccc(C#Cc3cccc(NC(=O)Nc4ccccc4)c3)c12` [Example 32, 1-{3-[(3-amino-1H-indazol-4-yl)ethynyl]phenyl}-3-phenylurea], the results for the pIC50 (on VEGFR2; in assay [1]) were 7.70 and 7.39, respectively.
For the compound `Cc1ccc(F)c(NC(=O)Nc2ccc(C#Cc3cccc4[nH]nc(N)c34)cc2)c1` [Example 33, 1-{4-[(3-amino-1H-indazol-4-yl)ethynyl]phenyl}-3-(2-fluoro-5-methylphenyl)urea], the pIC50 at VEGFR2 is 6.79; in assay [1], 7.05.
